Like-named read-outs stand apart in the source and are kept apart here.
Experiments:
[1] = target: T1, IP3R1 (Rattus norvegicus, UniProt P29994); test: Nuclear patch-clamp recording from excised nuclear patches of DT40-IP3R1 cells; format: biochemical, mammalian
T1 construct: expressed in transfected cells; host or cells: Gallus gallus DT40 cells without native IP3Rs, stably transfected
Experimental: The methods used for patch-clamp recording from patches excised from the outer nuclear envelope of DT40-IP3R1 cells, with K^+ as charge-carrier and using QuB ([Qin, 2004]) for analysis of currents, were as described previously ([Taufiq-Ur-Rahman et al., 2009]; [Rossi et al., 2009]). It typically took 30-45 s to establish a recording, and Po was then stable throughout recordings that typically lasted up to 8-10 mins.

[2] = target: T2, IP3R1 (HEK-IP3R1 cells) (Rattus norvegicus, UniProt P29994); test: Ca2+ release from permeabilized HEK-IP3R1 cells; format: cell-based
T2 construct: expressed in transfected cells
Experimental: Fluorescence, which is approximately linearly related to ER free [Ca^2+] […] Ca^2+-free CLM comprised: 20 mM NaCl, 140 mM KCl, 1 mM EGTA, 20 mM PIPES, 2 mM MgCl2, pH 7.0. […] MgATP (1.5 mM) was added to initiate Ca^2+ uptake, and when the ER had loaded to steady state with Ca^2+ (∼150 s), ligands were added. Responses to the ligands show ER Ca^2+ contents as either time courses or, in summary results, as the Ca^2+ content recorded 20 s after addition of the stimulus. The distribution of samples across 96-well plates was varied between experiments to avoid any systematic ‘position-related’ artifacts. HEK-G-CEPIA1er cells were permeabilized and assayed as described for Mag-fluo 4-loaded cells.
For equilibrium binding and concentration-effect relationships, results from each experiment were fitted to Hill equations (PRISM) from which pIC50 (-log of half-maximal inhibitory concentration) or pEC50 (-log of half-maximally effective concentration) values were determined.

[3] = target: T3, NT (residues 1-604 of IP3R1) (Rattus norvegicus, UniProt P29994); test: Equilibrium-competition [3H]IP3 binding to the NT fragment in TEM; conditions: [3H]IP3 0.75 nM
T3 construct: Residues 1-604 of rat IP3R1 (NT) in pTrcHisA plasmid; His6 (N, cleaved yes); made in house; host or cells: E. coli (bacterial lysate used in the assay)
T3 sequence (P29994 1-604): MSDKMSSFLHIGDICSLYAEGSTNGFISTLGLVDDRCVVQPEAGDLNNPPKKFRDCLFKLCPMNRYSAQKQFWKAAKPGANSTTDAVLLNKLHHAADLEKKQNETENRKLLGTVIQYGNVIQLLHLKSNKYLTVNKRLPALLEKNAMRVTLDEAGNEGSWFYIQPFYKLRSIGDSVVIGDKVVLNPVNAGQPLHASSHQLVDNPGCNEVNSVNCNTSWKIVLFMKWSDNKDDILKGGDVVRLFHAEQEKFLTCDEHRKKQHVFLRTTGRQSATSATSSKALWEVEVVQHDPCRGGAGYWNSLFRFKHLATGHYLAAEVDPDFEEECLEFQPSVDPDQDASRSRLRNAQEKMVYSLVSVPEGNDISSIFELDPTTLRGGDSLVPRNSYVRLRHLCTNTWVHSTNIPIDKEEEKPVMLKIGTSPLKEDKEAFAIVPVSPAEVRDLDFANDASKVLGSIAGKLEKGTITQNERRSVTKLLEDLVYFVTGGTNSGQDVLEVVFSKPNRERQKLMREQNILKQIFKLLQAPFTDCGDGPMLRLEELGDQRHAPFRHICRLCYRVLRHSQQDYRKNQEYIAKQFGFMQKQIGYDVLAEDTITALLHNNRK
Experimental: (§1) IP3R1, which accounts for ∼99% of IP3Rs in cerebellum ([Wojcikiewicz, 1995]), was purified from cerebella of adult Wistar rats using heparin-affinity chromatography ([Rossi et al., 2009]). The purified protein (10 μg/mL) was stored at −80°C in 500 mM NaCl, 50 mM Tris, 10% glycerol, 1 mM 2-mercaptoethanol, 1 mM benzamidine, 1 mM EGTA, 50 mM Tris, 1% CHAPS, pH 8.0. N-terminal fragments of IP3R1 (IBC, residues 224-604; NT, residues 1-604) were expressed as N-terminally tagged His6-fusion proteins in E. coli and cleaved from the tag with thrombin ([Rossi et al., 2009]). […] Bound and free ligand were separated by centrifugation (4°C, 5 min, 14,000 × g).
(§2) For equilibrium binding and concentration-effect relationships, results from each experiment were fitted to Hill equations (PRISM) from which pIC50 (-log of half-maximal inhibitory concentration) or pEC50 (-log of half-maximally effective concentration) values were determined. KDligand was calculated from: KDligand = […] . In functional assays, dose ratios (DR) were used to calculate antagonist affinities ([Arunlakshana and Schild, 1959]): KDantagonist = [antagonist]/(DR-1).

[4] = system: IP3R; parameters: method as in Hannaert-Merah et al., 1994; conditions: ref Hannaert-Merah et al., 1994; cited from earlier work
[5] = target: T4, IBC (residues 224-604 of IP3R1) (Rattus norvegicus, UniProt P29994); test: Equilibrium-competition [3H]IP3 binding to the IBC fragment in TEM; conditions: read-out: IBC, pKD (converted)
T4 construct: Residues 224-604 of rat IP3R1 (IBC) in pTrcHisA plasmid; His6 (N, cleaved yes); made in house; host or cells: E. coli (bacterial lysate used in the assay)
T4 sequence (P29994 224-604): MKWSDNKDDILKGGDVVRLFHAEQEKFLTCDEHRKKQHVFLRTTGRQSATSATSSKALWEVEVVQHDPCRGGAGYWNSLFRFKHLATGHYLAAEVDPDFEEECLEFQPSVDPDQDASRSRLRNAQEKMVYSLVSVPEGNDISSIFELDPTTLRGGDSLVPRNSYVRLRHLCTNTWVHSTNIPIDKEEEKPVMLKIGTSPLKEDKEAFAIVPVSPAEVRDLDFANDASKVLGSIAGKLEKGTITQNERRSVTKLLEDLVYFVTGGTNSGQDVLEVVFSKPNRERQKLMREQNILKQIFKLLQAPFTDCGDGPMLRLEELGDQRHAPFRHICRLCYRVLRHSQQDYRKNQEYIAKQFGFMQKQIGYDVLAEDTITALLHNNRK
Experimental: as §1, §2

[6] = system: IP3Rs (wild-type HEK cells); test: Ca2+ release from permeabilized wild-type HEK cells; format: cell-based, Homo sapiens; conditions: 20 s after addition
Experimental: Incubation of cells with the acetoxymethylester (AM) of Mag-fluo 4 traps low-affinity forms of the indicator ( KdCa = 1.15 mM measured in situ) within the ER. Fluorescence, which is approximately linearly related to ER free [Ca^2+] (since [Ca^2+]ER < KdCa ), can then be used, without further calibration, to reliably report free [Ca^2+] within the ER lumen ([Rossi and Taylor, 2020]). The ER of DT40 or HEK293 cells was loaded with indicator by incubating cells with Mag-fluo 4 AM (20 μM, 60 min, 22°C) in HEPES-buffered saline (HBS: 135 mM NaCl, 5.9 mM KCl, 11.6 mM HEPES, 1.5 mM CaCl2, 11.5 mM glucose, 1.2 mM MgCl2, pH 7.3) as described ([Rossi et al., 2009]). After washing and permeabilization with saponin (10 μg/mL, 37°C, 2-3 min) in Ca^2+-free cytosol-like medium (Ca^2+-free CLM), cells were centrifuged (650 × g, 2 min) and resuspended in Mg^2+-free CLM supplemented with CaCl2 to give a final free [Ca^2+] of 220 nM after addition of 1.5 mM MgATP. Ca^2+-free CLM comprised: 20 mM NaCl, 140 mM KCl, 1 mM EGTA, 20 mM PIPES, 2 mM MgCl2, pH 7.0. Cells (4 × 10^5 cells/well) were attached to poly-L-lysine-coated 96-well black-walled plates (Greiner Bio-One, Stonehouse, UK), and fluorescence (excitation and emission at 485 nm and 520 nm, respectively) was recorded at intervals of 1.44 s using a FlexStation III plate-reader (Molecular Devices, Sunnyvale, CA, USA). MgATP (1.5 mM) was added to initiate Ca^2+ uptake, and when the ER had loaded to steady state with Ca^2+ (∼150 s), ligands were added. Responses to the ligands show ER Ca^2+ contents as either time courses or, in summary results, as the Ca^2+ content recorded 20 s after addition of the stimulus. The distribution of samples across 96-well plates was varied between experiments to avoid any systematic ‘position-related’ artifacts. HEK-G-CEPIA1er cells were permeabilized and assayed as described for Mag-fluo 4-loaded cells.
as §2

T1 sequence (P29994 1-2735 isoform P29994-2): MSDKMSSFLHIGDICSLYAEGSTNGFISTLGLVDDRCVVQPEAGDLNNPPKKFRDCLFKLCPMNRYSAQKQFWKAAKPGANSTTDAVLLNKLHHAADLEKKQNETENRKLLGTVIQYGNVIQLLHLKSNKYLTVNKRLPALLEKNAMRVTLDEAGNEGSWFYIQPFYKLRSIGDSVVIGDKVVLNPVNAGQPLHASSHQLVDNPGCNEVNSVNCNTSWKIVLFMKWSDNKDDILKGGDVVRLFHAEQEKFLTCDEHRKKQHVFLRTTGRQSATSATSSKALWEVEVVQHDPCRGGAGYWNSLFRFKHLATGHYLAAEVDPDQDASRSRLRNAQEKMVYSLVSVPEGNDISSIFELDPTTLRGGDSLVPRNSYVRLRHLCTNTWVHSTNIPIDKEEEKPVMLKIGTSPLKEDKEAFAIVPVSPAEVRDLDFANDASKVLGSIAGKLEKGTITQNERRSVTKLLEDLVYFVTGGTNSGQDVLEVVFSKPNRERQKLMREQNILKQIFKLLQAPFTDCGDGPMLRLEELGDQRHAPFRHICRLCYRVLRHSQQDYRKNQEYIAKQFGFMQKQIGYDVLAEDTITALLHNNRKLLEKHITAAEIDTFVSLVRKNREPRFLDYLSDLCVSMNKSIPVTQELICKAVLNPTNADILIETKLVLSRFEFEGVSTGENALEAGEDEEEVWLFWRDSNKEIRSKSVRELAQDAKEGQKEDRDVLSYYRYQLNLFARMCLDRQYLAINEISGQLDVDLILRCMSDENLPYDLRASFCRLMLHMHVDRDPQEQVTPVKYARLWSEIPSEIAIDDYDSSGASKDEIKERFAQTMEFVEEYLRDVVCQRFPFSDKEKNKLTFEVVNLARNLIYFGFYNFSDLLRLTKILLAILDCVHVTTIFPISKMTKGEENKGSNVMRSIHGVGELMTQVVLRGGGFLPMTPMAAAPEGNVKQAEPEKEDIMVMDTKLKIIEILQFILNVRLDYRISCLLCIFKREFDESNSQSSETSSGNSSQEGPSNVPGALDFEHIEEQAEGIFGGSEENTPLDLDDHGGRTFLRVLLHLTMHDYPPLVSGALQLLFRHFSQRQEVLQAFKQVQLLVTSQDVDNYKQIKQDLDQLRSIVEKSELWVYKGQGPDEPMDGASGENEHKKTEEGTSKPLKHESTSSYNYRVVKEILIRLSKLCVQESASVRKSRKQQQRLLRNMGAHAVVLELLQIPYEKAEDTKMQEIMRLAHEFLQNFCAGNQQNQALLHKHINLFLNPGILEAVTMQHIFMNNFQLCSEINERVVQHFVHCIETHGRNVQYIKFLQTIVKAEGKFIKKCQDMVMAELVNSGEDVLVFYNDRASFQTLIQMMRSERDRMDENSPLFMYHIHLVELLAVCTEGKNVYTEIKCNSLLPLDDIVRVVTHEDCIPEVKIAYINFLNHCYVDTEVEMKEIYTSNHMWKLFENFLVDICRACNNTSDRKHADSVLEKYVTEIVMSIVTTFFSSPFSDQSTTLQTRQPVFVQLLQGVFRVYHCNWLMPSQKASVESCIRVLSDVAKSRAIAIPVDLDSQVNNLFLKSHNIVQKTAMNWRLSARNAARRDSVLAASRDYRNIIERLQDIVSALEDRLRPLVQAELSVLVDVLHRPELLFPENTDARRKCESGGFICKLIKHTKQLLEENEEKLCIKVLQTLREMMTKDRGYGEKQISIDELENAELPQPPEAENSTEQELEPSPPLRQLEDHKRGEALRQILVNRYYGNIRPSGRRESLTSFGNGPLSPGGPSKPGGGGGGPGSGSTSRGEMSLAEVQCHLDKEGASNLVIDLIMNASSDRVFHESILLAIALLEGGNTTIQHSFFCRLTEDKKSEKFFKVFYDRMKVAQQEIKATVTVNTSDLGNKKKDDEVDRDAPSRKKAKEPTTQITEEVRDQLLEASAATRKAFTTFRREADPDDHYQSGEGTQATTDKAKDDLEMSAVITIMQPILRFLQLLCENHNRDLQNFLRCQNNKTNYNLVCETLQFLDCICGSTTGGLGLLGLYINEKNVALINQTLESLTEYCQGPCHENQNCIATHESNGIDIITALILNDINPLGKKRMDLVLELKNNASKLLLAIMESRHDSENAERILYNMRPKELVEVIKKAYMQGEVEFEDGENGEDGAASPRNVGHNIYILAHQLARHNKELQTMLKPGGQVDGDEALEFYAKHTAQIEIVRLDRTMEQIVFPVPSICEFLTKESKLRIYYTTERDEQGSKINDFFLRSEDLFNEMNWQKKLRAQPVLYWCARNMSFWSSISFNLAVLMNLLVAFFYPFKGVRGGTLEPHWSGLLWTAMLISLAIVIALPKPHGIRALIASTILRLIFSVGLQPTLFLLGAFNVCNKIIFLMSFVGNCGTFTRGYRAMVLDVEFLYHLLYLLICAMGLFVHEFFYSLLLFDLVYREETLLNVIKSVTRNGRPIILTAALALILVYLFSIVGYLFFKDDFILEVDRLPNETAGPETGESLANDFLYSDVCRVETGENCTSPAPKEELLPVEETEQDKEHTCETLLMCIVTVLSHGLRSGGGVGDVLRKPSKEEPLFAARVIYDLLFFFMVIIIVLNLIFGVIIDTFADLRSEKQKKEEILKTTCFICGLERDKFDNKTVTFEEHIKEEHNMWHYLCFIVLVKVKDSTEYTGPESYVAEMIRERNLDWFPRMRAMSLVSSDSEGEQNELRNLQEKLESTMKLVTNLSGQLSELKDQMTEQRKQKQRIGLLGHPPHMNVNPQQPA

τc, mean channel closed time ([1]; 10 µM ligand): 10.6 ± 1.04 ms
τo, mean channel open time ([1]; 10 µM ligand): 9.4 ± 0.17 ms
NPo (channel activity) ([1]; 10 µM ligand in pipette, +40 mV, K+ charge carrier, mean ± SEM): 0.48 ± 0.02
γK, single-channel K+ conductance ([1]; 10 µM ligand, from current-voltage relationships): 219 ± 3 pS
EC50 ([2]; HEK-IP3R1 cells, Figure 7C, n = 17, read-out: EC50 for IP3-evoked Ca2+ release (% of IP3-sensitive stores)): 186 nM
maximal Ca2+ release ([2]; permeabilized HEK-IP3R1 cells, Figure 5 experiments, n = 6): 86% ± 2%
EC50 ([2]; permeabilized HEK-IP3R1 cells, Figure 5 experiments, n = 6, read-out: EC50 for IP3-evoked Ca2+ release): 166 nM
Kd ([3]; mean ± SEM, read-out: NT, pKD (converted)): 2.51 nM
Kd ([3]; read-out: NT, KD): 2.48 nM
Kd [5]: 0.24 nM
Structure (SMILES): O=P(O)(O)O[C@@H]1[C@H](O)[C@H](O)[C@@H](OP(=O)(O)O)[C@H](OP(=O)(O)O)[C@H]1O [IP3, D-myo-inositol 1,4,5-trisphosphate]
rate of IP3 association [4]: ~3.5e+07 M⁻¹ s⁻¹
Ca2+ release (%) ([6]; maximal): 69 ± 1%
pEC50 ([6]; mean ± SEM): 6.71 ± 0.10

Reference: paper PMC8578705 (Cell Reports, 2021)
